Source: US7169805B2 (Nicox S.A., priority 2003, dated 2007)

What was measured:
SHR rats = assay: Antihypertensive activity in a genetic model of hypertension (SHR rats), arterial pressure; assay type: in vivo, rat; conditions: single oral dose 30 mg/Kg; for Arterial pressure (MAP): 4 hours after treatment; for Reduction of blood pressure vs the control: 4 hrs after treatment
Procedure: (§1) SHR rats were treated orally in a single dose of 30 mg/Kg. After 2 hours the animal were anaesthetized with tiopental-Na; a fluid catheter was inserted in a right carotid artery and connected to a transducer for the homodynamic measurements. 4 hours after the treatment the arterial pressure (MAP, mmHg) was measured.

[1] = test system: isolated rabbit thoracic aorta preparations; assay: Vasorelaxing activity in isolated rabbit thoracic aorta rings precontracted with noradrenaline; assay type: cell-based; conditions: for Emax / IC50: Oryctolagus cuniculus, NA (1 μM) precontracted rings with functional endothelium; for Emax: at 100 μM of tested compound, read-out: Emax (maximum efficacy); for IC50: read-out: IC50 (concentration producing 50% of the maximum relaxation)
Procedure: Male New Zealand rabbits were anaesthetized with thiopental-Na (50 mg/kg, iv), sacrificed by exsanguinations and then the thorax was opened and the aorta dissected. Single ring preparations (4 mm in length) of thoracic aorta were set up in physiological salt solution (PSS) at 37° C. in small organ chambers (5 ml). The composition of PSS was (mM): NaCl 130, NaHCO3 14.9, KH2PO4 1.2, MgSO4 1.2, HEPES 10, […] (95% O2/5% CO2; pH 7.4). Each ring was mounted under 2 g passive tension. Isometric tension was recorded with a Grass transducer (Grass FT03) attached to a BIOPAC MP150 System. Preparations were allowed to equilibrate for 1 h, then contracted submaximally with noradrenaline (NA, 1 μM) and, when the contraction was stable, acetylcholine (ACh, 10 μM) was added. A relaxant response to ACh indicated the presence of a functional endothelium. […] When a stable precontraction was reached, a cumulative concentration-response curve for each of the tested compounds was obtained in the presence of a functional endothelium. Time intervals between different concentrations were based on the time needed to reach a full response. Each arterial ring was exposed to only one combination of inhibitor and the tested compounds. Moreover, the effect of the soluble guanylyl cyclase inhibitor ODQ (1-H-(1,2,4)-oxadiazol (4,3-a)quinoxalin-1-one) on the dilator responses elicited by the compounds was examined preincubating the aortic rings with ODQ (10 μM) for 20 min.
Results are expressed as IC50 value, which is the concentration of the tested compound producing 50% of the maximum relaxation, and as Emax value which is the maximum efficacy at a concentration of 100 μM of the tested compound.
During the experimental period, the plateau obtained with NA was stable without significant spontaneous loss of contraction in the aortic rings.
Furthermore, in experiments performed in presence of ODQ (10 μM), the vasorelaxant responses to all the tested compounds were inhibited.

[2] = given orally; cited from earlier work
ACE = molecular target: T1, ACE (Rattus norvegicus, UniProt P47820); assay: Plasma ACE activity of treated SHR rats, spectrophotometric FAPGG hydrolysis; assay type: in vivo; conditions: heparinized plasma of SHR rats after single oral dose 30 mg/Kg, collected at end of experiment
T1 construct: from tissue; host or cells: heparinized plasma of orally treated SHR rats
T1 sequence (P47820 36-1238 limits assumed): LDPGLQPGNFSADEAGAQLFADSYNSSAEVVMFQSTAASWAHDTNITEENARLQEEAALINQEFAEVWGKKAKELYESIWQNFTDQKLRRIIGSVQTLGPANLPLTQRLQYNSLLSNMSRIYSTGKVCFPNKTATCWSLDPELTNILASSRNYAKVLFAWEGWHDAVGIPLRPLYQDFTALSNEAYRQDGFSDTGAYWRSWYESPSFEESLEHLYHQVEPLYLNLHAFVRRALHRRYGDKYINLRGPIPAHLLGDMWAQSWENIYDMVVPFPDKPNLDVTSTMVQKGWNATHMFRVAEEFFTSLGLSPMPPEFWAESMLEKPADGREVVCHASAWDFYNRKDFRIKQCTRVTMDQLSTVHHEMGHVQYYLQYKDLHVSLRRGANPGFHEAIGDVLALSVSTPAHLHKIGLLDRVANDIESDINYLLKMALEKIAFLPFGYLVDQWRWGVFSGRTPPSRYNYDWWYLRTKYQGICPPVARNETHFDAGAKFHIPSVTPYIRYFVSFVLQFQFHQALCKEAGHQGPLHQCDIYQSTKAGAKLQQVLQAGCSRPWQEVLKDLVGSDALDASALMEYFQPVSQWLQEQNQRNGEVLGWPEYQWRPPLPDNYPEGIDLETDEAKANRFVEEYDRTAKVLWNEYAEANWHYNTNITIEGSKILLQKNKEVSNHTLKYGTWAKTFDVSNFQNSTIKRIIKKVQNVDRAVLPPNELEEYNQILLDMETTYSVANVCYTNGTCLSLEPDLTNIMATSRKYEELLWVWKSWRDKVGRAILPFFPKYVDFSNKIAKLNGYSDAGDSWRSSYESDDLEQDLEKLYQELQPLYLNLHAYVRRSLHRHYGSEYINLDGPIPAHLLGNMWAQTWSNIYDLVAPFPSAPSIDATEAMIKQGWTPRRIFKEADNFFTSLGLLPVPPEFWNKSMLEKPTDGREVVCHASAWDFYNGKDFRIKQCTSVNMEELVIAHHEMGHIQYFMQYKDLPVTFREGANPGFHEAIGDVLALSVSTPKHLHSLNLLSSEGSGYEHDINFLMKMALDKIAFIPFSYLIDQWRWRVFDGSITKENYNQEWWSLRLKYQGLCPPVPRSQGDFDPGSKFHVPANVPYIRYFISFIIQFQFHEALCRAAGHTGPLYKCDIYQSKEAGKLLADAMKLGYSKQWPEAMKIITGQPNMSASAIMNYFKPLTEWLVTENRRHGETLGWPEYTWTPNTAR
Procedure: as §1
At the end of the experiments the blood was collected from the right carotid. The heparinized blood samples were centrifuged at 1000 g for 20 min at 4° C. The plasma was stored at −20° C. until the ACE activity measurements.
The ACE activity was determined by a spectrophotometric method (Sigma) based on the enzymatic reaction catalysed by ACE, where the FAPGG was hydrolysed to FAP.
FAPGG hydrolysis produced a decrease in the absorbance at 340 nm, a marker of ACE activity in the sample. Results, reported in table 3, were expressed as U/L in heparinized plasma.

Row | SMILES | IC50 [1] [µM] | ACE activity (ACE) [U/L] | Arterial pressure (MAP) (SHR rats) [mmHg] | Emax [1] [%] | Relaxation of aortic rings (in words) ([1]; any of the concentrations tested, curve not different from vehicle alone) | Bioavailability [2] | Elimination route (in words) [2] | Reduction of blood pressure vs the control (SHR rats) [%]
1 | C[C@H](CS)C(=O)N1CCC[C@H]1C(=O)O [Captopril, 1-[(2S)-3-mercapto-2-methylpropionyl]-L-proline, reference compound] |  |  | 145 | 0 | did not produce relaxation | about 75% | most of the drug is eliminated in urine | 
2 | C[C@H](CSC(=O)OCCCCO[N+](=O)[O-])C(=O)N1CCC[C@H]1C(=O)O [Ex. 2, 1-[(2S)-3-(4-Nitrooxybutoxycarbonyl)mercapto-2-methyl-1-oxopropyl]-L-proline] | 6 ± 0.87 |  |  | 96.9 ± 1.87 |  |  |  | 
3 | CC(=O)SC[C@@H](C)C(=O)N1CCC[C@H]1C(=O)N[C@H](Cc1ccccc1)C(=O)Oc1cccc(CO[N+](=O)[O-])c1 [Ex. 9, 1-[(2S)-3-(Acetylthio)-2-methyl-1-oxopropyl]-L-prolyl-L-phenylalanine 3-nitrooxymethyl phenyl ester] | 3.2 ± 0.65 |  |  | 96.8 ± 0.65 |  |  |  | 

More lines, main results first:

Row | IC50 [1] [µM] | ACE activity (ACE) [U/L] | SMILES | Arterial pressure (MAP) (SHR rats) [mmHg] | Emax [1] [%] | Relaxation of aortic rings (in words) ([1]; any of the concentrations tested, curve not different from vehicle alone) | Bioavailability [2] | Elimination route (in words) [2] | Reduction of blood pressure vs the control (SHR rats) [%]
4 | 6.7 ± 0.84 |  | C[C@H](CSC(=O)OCO[N+](=O)[O-])C(=O)N1CCC[C@H]1C(=O)O [Ex. 3, 1-[(2S)-3-(Nitrooxymethoxycarbonyl)mercapto-2-methyl-1-oxopropyl]-L-proline] |  | 97.9 ± 1.51 |  |  |  | 
5 | 26.1 ± 3.91 | 59 | CC(=O)SC[C@@H](C)C(=O)N1CCC[C@H]1C(=O)OCCCO[N+](=O)[O-] [Ex. 8, 1-[3-(Acetylthio)-(2S)-methyl-1-oxopropyl]-L-proline 3-nitrooxypropyl ester] | 132 | 77.9 ± 3.21 |  |  |  | 35
6 | 4.01 ± 1.18 | 53 | CC(=O)SC[C@@H](C)C(=O)N1CCC[C@H]1C(=O)Oc1cccc(CO[N+](=O)[O-])c1 [Ex. 8b, 1-[3-(acetylthio)-(2S)-methyl-1-oxopropyl]-L-proline 3-nitrooxymethylphenyl ester] | 116 | 92.4 ± 4.15 |  |  |  | 43
